Assays:
[1] = Inhibition of FLT3 ITD mutant in human MOLM13 cells assessed as reduction in cell viability incubated for 72 hrs by MTT assay
[2] = Inhibition of JAK2 V617F mutant in human SET-2 cells assessed as reduction in cell viability incubated for 72 hrs by MTT assay
[3] = Inhibition of JAK2 V617F mutant in mouse BaF3 cells assessed as reduction in cell viability incubated for 72 hrs by MTT assay

Row | Compound | IC50 [1] | IC50 [2] | IC50 [3]
1 | Cc1cnc(Nc2ccc(N3CCC(N(C)CCO)CC3)c(F)c2)nc1-c1cnn(C(C)C)c1 | 72 nM | – | –
2 | Cc1cnc(Nc2ccc3c(c2)CCN3CCO)nc1-c1cnn(C(C)C)c1 | 2060 nM | 3790 nM | 4390 nM
3 | Cc1cnc(Nc2ccc3c(c2)CN(CCO)C3)nc1-c1cnn(C(C)C)c1 | 1780 nM | – | –
4 | Cc1cnc(Nc2ccc3c(c2)CCN(CCO)C3)nc1-c1cnn(C(C)C)c1 | 1260 nM | 323 nM | 431 nM
5 | Cc1cnc(Nc2ccc3c(c2)CCN(CCCO)C3)nc1-c1cnn(C(C)C)c1 | 1320 nM | 394 nM | 365 nM
6 | CC(C)n1cc(-c2nc(Nc3ccc4c(c3)CCN(C(=O)CO)C4)ncc2F)cn1 | 453 nM | 574 nM | 679 nM
7 | Cc1cnc(Nc2ccc3c(c2)CCN(C(=O)Nc2cccc(Cl)c2)C3)nc1-c1cnn(C(C)C)c1 | 2070 nM | 3450 nM | 2180 nM
8 | CCNC(=O)N1CCc2cc(Nc3ncc(C)c(-c4cnn(C(C)C)c4)n3)ccc2C1 | 1070 nM | 2350 nM | 1890 nM
9 | CC(C)n1cc(-c2nc(Nc3ccc4c(c3)CCN(CCCO)C4)ncc2F)cn1 | 453 nM | 311 nM | 392 nM
10 | CCCNC(=O)N1CCc2cc(Nc3ncc(C)c(-c4cnn(C(C)C)c4)n3)ccc2C1 | 2070 nM | 1760 nM | 1210 nM
11 | Cc1cnc(Nc2cc3c(cc2F)CN(CCO)CC3)nc1-c1cnn(C(C)C)c1 | > 5000 nM | 4460 nM | 2570 nM
12 | CC(C)n1cc(-c2nc(Nc3ccc4c(c3)CCN(CCO)C4)ncc2F)cn1 | 547 nM | 651 nM | 760 nM
13 | CC(C)n1cc(-c2nc(Nc3ccc4c(c3)CCN(CCCCO)C4)ncc2F)cn1 | 455 nM | 604 nM | 445 nM
14 | CC(C)n1cc(-c2nc(Nc3ccc4c(c3)CCN(CCCCCO)C4)ncc2F)cn1 | 353 nM | 492 nM | 420 nM
15 | Cc1cnc(Nc2ccc3c(c2)CCN(CCCCO)C3)nc1-c1cnn(C(C)C)c1 | 879 nM | 268 nM | 234 nM
16 | Cc1cnc(Nc2ccc3c(c2)CCN(CCCCCO)C3)nc1-c1cnn(C(C)C)c1 | 965 nM | – | –
17 | CCOCCN1CCc2cc(Nc3ncc(C)c(-c4cnn(C(C)C)c4)n3)ccc2C1 | 568 nM | 339 nM | 302 nM
18 | CCCCN1CCc2cc(Nc3ncc(C)c(-c4cnn(C(C)C)c4)n3)ccc2C1 | 754 nM | 592 nM | 640 nM
19 | C=CCN1CCc2cc(Nc3ncc(C)c(-c4cnn(C(C)C)c4)n3)ccc2C1 | 868 nM | 288 nM | 452 nM
20 | Cc1cnc(Nc2ccc3c(c2)CCN(CC#N)C3)nc1-c1cnn(C(C)C)c1 | 647 nM | 73 nM | –

Row | Compound | IC50 [1] | IC50 [2] | IC50 [3]
21 | Cc1cnc(Nc2ccc3c(c2)CCN(CCC#N)C3)nc1-c1cnn(C(C)C)c1 | 356 nM | 296 nM | 177 nM
22 | C#CCN1CCc2cc(Nc3ncc(C)c(-c4cnn(C(C)C)c4)n3)ccc2C1 | 1480 nM | – | –
23 | CC#CCN1CCc2cc(Nc3ncc(C)c(-c4cnn(C(C)C)c4)n3)ccc2C1 | 1560 nM | 794 nM | 908 nM
24 | COC(=O)/C=C/CN1CCc2cc(Nc3ncc(C)c(-c4cnn(C(C)C)c4)n3)ccc2C1 | 497 nM | 14 nM | 10 nM
25 | COC(=O)CCCN1CCc2cc(Nc3ncc(C)c(-c4cnn(C(C)C)c4)n3)ccc2C1 | 1290 nM | 1040 nM | 938 nM
26 | Cc1cnc(Nc2ccc3c(c2)CCN(C(=O)/C=C/C(=O)c2ccccc2)C3)nc1-c1cnn(C(C)C)c1 | 458 nM | 52 nM | –
27 | Cc1ccc(C(=O)/C=C/C(=O)N2CCc3cc(Nc4ncc(C)c(-c5cnn(C(C)C)c5)n4)ccc3C2)cc1 | 758 nM | 15 nM | 13 nM
28 | Cc1ccc(C(=O)CCC(=O)N2CCc3cc(Nc4ncc(C)c(-c5cnn(C(C)C)c5)n4)ccc3C2)cc1 | 1060 nM | 626 nM | 784 nM
29 | Cc1cnc(Nc2ccc3c(c2)CCN(C(=O)/C=C/CN(C)C)C3)nc1-c1cnn(C(C)C)c1 | 880 nM | 12 nM | –
30 | Cc1cnc(Nc2ccc3c(c2)CCN(C(=O)CCCN(C)C)C3)nc1-c1cnn(C(C)C)c1 | 1480 nM | 985 nM | 2480 nM
31 | Cc1cnc(Nc2ccc3c(c2)CCN(C/C=C/C(=O)O)C3)nc1-c1cnn(C(C)C)c1 | 845 nM | 334 nM | 128 nM
32 | Cc1cnc(Nc2ccc3c(c2)CCN(C/C=C/C(=O)NCCN2CCCCC2)C3)nc1-c1cnn(C(C)C)c1 | 2090 nM | 554 nM | 1200 nM
33 | Cc1cnc(Nc2ccc3c(c2)CCN(C/C=C/C(=O)NC(C)(C)C)C3)nc1-c1cnn(C(C)C)c1 | 1060 nM | 612 nM | 145 nM
34 | CCN(CC)C(=O)/C=C/CN1CCc2cc(Nc3ncc(C)c(-c4cnn(C(C)C)c4)n3)ccc2C1 | 656 nM | 329 nM | 287 nM
35 | Cc1cnc(Nc2ccc3c(c2)CN(CC#N)CC3)nc1-c1cnn(C(C)C)c1 | 425 nM | 95 nM | 76 nM
36 | Cc1cnc(Nc2ccc3c(n2)CCN(CCCO)C3)nc1-c1cnn(C(C)C)c1 | 2570 nM | 2180 nM | 1430 nM
37 | Cc1cnc(Nc2ccc3c(c2)CN(C(=O)/C=C/CN(C)C)CC3)nc1-c1cnn(C(C)C)c1 | 456 nM | 15 nM | 25 nM
38 | Cc1ccc(C(=O)/C=C/C(=O)N2CCc3ccc(Nc4ncc(C)c(-c5cnn(C(C)C)c5)n4)cc3C2)cc1 | 629 nM | – | –
39 | COC(=O)/C=C/CN1CCc2ccc(Nc3ncc(C)c(-c4cnn(C(C)C)c4)n3)cc2C1 | 430 nM | 72 nM | 120 nM
40 | Cc1cnc(Nc2ccc3c(c2)CN(C(=O)/C=C/C(=O)c2ccccc2)CC3)nc1-c1cnn(C(C)C)c1 | 535 nM | 43 nM | 61 nM
